US5428158A, “2-substituted indane-2-mercaptoacetylamide derivatives useful as inhibitors of enkephalinase and ace” (Merrell Dow Pharmaceuticals Inc., priority 1993, dated 1995)

Assays:
Enkephalinase = biological target: T1, Enkephalinase (Rattus norvegicus, UniProt P07861); test: Enkephalinase inhibition, fluorometric, substrate dansyl-D-AlaGly(p-nitro)PheGly; type: biochemical; conditions: 50 mM HEPES, pH 7.4, 25° C., 12 μM substrate; read-out: ENK, Ki
T1 construct: Enkephalinase is partially purified from rat kidney; from tissue; host or cells: rat kidney (microvilli fraction; Triton X-100 extract or proteolytic solubilisation, then Mono Q FPLC)
T1 sequence (P07861 1-750): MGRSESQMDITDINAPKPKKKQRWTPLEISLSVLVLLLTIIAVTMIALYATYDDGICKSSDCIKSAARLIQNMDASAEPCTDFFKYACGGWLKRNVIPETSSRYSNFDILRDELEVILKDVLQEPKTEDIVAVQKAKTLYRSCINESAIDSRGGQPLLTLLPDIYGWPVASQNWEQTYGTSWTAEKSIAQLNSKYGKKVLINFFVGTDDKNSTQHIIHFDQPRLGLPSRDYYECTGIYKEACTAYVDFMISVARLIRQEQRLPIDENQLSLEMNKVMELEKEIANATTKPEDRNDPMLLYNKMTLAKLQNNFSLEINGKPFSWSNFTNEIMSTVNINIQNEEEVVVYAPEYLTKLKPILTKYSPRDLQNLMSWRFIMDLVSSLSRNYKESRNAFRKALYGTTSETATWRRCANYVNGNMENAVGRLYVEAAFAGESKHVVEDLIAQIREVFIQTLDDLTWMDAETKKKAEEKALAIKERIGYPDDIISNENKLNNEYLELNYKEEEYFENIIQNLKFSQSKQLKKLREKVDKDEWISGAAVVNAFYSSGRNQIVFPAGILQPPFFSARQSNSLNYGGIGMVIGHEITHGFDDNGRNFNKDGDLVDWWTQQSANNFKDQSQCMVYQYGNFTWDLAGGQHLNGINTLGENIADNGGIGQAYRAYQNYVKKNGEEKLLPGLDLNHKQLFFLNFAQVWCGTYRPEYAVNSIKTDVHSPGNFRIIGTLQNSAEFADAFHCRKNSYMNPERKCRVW
Excerpt: Enkephalinase is partially purified from rat kidney. The enzyme is extracted from the microvilli fraction by using Triton X-100 according to the method of Malfroy and Schwartz [J. Biol. Chem. 259, 14365-14370 (1984)] or by using a proteolytic treatment according to the method of Almenoff and Orlowski [Biochem. 22 590-599 (1983)]. The enzyme is further purified by anio exchange chromatography (Mono Q™ column, Pharmacia) using a Pharmacia FPLC system. The enzyme activity may be measured by the fluorometric methods of Florentin et al. [Anal. Biochem. 141, 62-69 (1984 ) ] or of Almenoff and Orlowski [J. Neurochemistry 42,151-157 (1984)]. […] The substrate (and inhibitor) is added from a concentrated stock solution in DMSO (up to 0.1 mL DMSO final volume). The enzyme in a small volume (approximately 0.1 μg of FPLC purified protein) is added to initiate the reaction and the rate of fluorecense increase is recorded continuously using a fluorometer (excitation at 339 nm, emission at 562 nm).
(§1) The results of the analysis of enzymatic activity as described in Table 1 indicate that the compounds of the present invention are inhibitors of enkephalinase as well as inhibitors of ACE.

ACE = ACE (Homo sapiens, UniProt P12821); test: ACE inhibition, spectrophotometric substrate; type: biochemical
ACE, sequence (P12821 30-1306, species assumed): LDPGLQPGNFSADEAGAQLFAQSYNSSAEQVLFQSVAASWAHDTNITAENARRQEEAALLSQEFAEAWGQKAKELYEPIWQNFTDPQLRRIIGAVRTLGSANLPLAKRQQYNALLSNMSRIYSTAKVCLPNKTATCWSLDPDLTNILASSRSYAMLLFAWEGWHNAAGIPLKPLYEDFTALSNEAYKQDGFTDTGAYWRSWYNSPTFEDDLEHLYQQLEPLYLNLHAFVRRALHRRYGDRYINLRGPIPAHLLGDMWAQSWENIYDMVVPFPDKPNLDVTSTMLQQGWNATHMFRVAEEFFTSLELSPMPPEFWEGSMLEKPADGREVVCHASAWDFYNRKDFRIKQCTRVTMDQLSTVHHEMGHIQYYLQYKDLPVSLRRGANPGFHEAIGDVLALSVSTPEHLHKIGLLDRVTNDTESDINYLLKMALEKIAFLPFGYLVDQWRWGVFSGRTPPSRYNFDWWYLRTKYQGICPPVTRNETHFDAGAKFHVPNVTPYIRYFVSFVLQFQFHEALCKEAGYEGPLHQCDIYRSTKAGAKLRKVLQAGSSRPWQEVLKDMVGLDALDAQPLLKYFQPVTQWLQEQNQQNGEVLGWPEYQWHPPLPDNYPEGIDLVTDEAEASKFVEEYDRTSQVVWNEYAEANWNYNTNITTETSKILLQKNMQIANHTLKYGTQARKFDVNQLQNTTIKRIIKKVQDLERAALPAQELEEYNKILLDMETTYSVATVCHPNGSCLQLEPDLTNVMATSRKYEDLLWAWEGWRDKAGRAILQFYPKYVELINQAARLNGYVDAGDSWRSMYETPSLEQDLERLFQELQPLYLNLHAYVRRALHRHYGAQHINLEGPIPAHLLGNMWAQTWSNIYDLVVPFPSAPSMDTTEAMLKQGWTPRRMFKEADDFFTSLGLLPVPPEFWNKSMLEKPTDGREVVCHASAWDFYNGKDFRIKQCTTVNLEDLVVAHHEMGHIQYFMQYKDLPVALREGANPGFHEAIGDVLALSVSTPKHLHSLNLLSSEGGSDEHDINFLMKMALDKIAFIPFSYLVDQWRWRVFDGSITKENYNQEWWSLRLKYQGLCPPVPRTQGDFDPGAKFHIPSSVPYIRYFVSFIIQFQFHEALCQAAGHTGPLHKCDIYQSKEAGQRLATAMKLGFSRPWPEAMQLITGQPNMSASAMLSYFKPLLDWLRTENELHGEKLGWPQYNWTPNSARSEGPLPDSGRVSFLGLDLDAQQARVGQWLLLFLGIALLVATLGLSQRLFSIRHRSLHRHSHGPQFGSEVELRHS
Excerpt: The enzymatic activity of ACE is monitored using the spectrophotometric substrate described by Holmquist et al. [Anal. Biochem. 95, 540-548 (1979)]and the buffer system described by Ryan [Methods of Enzymatic Analysis, 3rd ed., H. U. Bergmeyer, editor; vol. V, Verlag Chemie, Weinheim, 1983, pp. 20-34].
as §1

myointimal proliferation = conditions: after vascular injury; Davis et al. 1992; cited from earlier work

Compound | Ki (Enkephalinase) | Ki (ACE) | myointimal proliferation (myointimal proliferation)
CC(C)(S)C(=O)N[C@H]1Cc2ccccc2[C@H]2CCC[C@@H](C(=O)O)N2C1=O [101,069, [4S-[4α, 7α(R*), 12bβ]]-7-[(2-Thio-1-oxo-2-methyl)-2-propylamino]-1,2,3,4,6,7,8,12b-octahydro-6-oxopyrido[2,1-a][2]benzazepine-4-carboxylic acid] | 4 nM | > 7 nM | –
O=C(O)[C@@H]1CCC[C@@H]2c3ccccc3C[C@H](NC(=O)C3(CCS)Cc4ccccc4C3)C(=O)N21 [100,273, [4S-[4α, 7α(R*), 12bβ]]-7-[(2-(2-mercaptoethyl)-2-oxoindan)methylamino]1,2,3,4,6,7,8,12b-octahydro-6-oxopyrido[2,1-a][2]benzazepine-4-carboxylic acid] | 0.8 nM | > 250 nM | –
CCOC(=O)[C@H](CCSC)NC(=O)[C@@H](CSC(C)=O)Cc1ccccc1C [SCH42495] | – | – | prevent myointimal proliferation after vascular injury
O=C(O)[C@@H]1CCC[C@@H]2c3ccccc3C[C@H](NC(=O)C3(CS)Cc4ccccc4C3)C(=O)N21 [100,346, [4S-[4α, 7α(R*), 12bβ]]-7-[(2-Mercaptomethyl-2-oxoindan)methylamino]-1,2,3,4,6,7,8,12b-octahydro-6-oxopyrido[2,1-a][2]benzazepine-4-carboxylic acid] | < 0.2 nM | < 500 nM | –
O=C(O)[C@@H]1CCC[C@@H]2c3ccccc3C[C@H](NC(=O)C3(S)CCCC3)C(=O)N21 [102,769, [4S-[4α, 7α(R*), 12bβ]]-7-[(1-Thio-1-oxocyclopentane)methylamino]-1,2,3,4,6,7,8,12b-octahydro-6-oxopyrido[2,1-a][2]benzazepine-4-carboxylic acid] | < 0.2 nM | < 7 nM | –
O=C(O)[C@@H]1CCC[C@@H]2c3ccccc3C[C@H](NC(=O)C3(S)Cc4ccccc4C3)C(=O)N21 [102,708, [4S-[4α, 7α(R*), 12bβ]]-7-[(2-Thio-2-oxoindan)methylamino]-1,2,3,4,6,7,8,12b-octahydro-6-oxopyrido[2,1-a][2]benzazepine-4-carboxylic acid] | < 0.2 nM | < 45 nM | –
